Test results from the supplement of paper PMC13380429.

Assays:
U2OS [1] = test: cell viability relative to DMSO; higher = less toxic; settings: 72 h
Vero E6 [2] = test: as above; settings: 72 h
Calu-3 [3] = test: as above; settings: 72 h
HepG2 [4] = test: as above; settings: 72 h
Caco-2 [5] = test: as above; settings: 72 h
[6] = system: A549-ACE2 infected with SARS-CoV-2; test: SARS-CoV-2 infection rate relative to DMSO; higher = more infection; settings: 24 h
A549-ACE2 [7] = test: drug-induced phospholipidosis relative to tamoxifen; higher = more phospholipidosis
[8] = system: A549-ACE2 infected with SARS-CoV-2; test: cell count relative to DMSO; higher = less toxic; settings: 24 h
U2OS [9] = test: drug sensitivity score (DSS) for viability; higher = more toxic; extreme values may be limits of the assay; settings: 72 h
Vero E6 [10] = test: as above; settings: 72 h
Calu-3 [11] = test: as above; settings: 72 h
HepG2 [12] = test: as above; settings: 72 h
Caco-2 [13] = test: as above; settings: 72 h
A549-ACE2 [14] = test: phospholipidosis EC50; higher = less potent phospholipidosis inducer
[15] = system: A549-ACE2 infected with SARS-CoV-2; test: morphology score (similarity to uninfected cells); higher = more like uninfected cells; settings: 24 h
U2OS [16] = test: relative viability EC50 (midpoint between 100% and the lowest measured viability); higher = less toxic; settings: 72 h
Vero E6 [17] = test: as above; settings: 72 h
Calu-3 [18] = test: as above; settings: 72 h
HepG2 [19] = test: as above; settings: 72 h
Caco-2 [20] = test: as above; settings: 72 h

CCOc1ccc(-c2nc(-c3cccc4c3CCC4NCCO)no2)cc1OCC (stereo not given) [CYM-5442]
Settings	SARS-CoV-2 infection rate [%]	cell count [%]	cell viability [%]	morphology score	phospholipidosis EC50 [µM]
A549-ACE2 [14], 24 h	–	–	–	–	2.26
A549-ACE2 [14], 48 h	–	–	–	–	3.87
A549-ACE2 [14], 72 h	–	–	–	–	4.72
Caco-2 [5], 1 nM	–	–	91	–	–
Caco-2 [5], 10 nM	–	–	96.9	–	–
Caco-2 [5], 100 nM	–	–	102	–	–
Caco-2 [5], 1000 nM	–	–	99.2	–	–
Caco-2 [5], 10000 nM	–	–	71.7	–	–
Calu-3 [3], 1 nM	–	–	94.6	–	–
Calu-3 [3], 10 nM	–	–	95.2	–	–
Calu-3 [3], 100 nM	–	–	91.2	–	–
Calu-3 [3], 1000 nM	–	–	104	–	–
Calu-3 [3], 10000 nM	–	–	92.8	–	–
HepG2 [4], 1 nM	–	–	97.5	–	–
HepG2 [4], 10 nM	–	–	101	–	–
HepG2 [4], 100 nM	–	–	90.5	–	–
HepG2 [4], 1000 nM	–	–	97.2	–	–
HepG2 [4], 10000 nM	–	–	78.8	–	–
U2OS [1], 1 nM	–	–	99	–	–
U2OS [1], 10 nM	–	–	95.7	–	–
U2OS [1], 100 nM	–	–	103	–	–
U2OS [1], 1000 nM	–	–	97	–	–
U2OS [1], 10000 nM	–	–	90.5	–	–
Vero E6 [2], 1 nM	–	–	90.7	–	–
Vero E6 [2], 10 nM	–	–	102	–	–
Vero E6 [2], 100 nM	–	–	84.5	–	–
Vero E6 [2], 1000 nM	–	–	94.7	–	–
Vero E6 [2], 10000 nM	–	–	99.1	–	–
[6], 0.3 µM	96	–	–	–	–
[6], 3 µM	55	–	–	–	–
[6], 10 µM	13	–	–	–	–
[6], 30 µM	19	–	–	–	–
[8], 0.3 µM	–	100	–	–	–
[8], 3 µM	–	118	–	–	–
[8], 10 µM	–	113	–	–	–
[8], 30 µM	–	104	–	–	–
[15], 0.3 µM	–	–	–	0.19	–
[15], 3 µM	–	–	–	0.72	–
[15], 10 µM	–	–	–	0.84	–
[15], 30 µM	–	–	–	0.63	–

drug-induced phospholipidosis [%], A549-ACE2 [7]
Settings	0.3 µM	0.833333 µM	3.33333 µM	6.66667 µM	10 µM	30 µM
24 h	3.28	18.4	62.3	81.5	100	87.8
48 h	3.02	11.2	44.6	72.9	96	93.9
72 h	0.284	11.6	36.7	67.4	106	99.3

Settings	drug sensitivity score	relative viability EC50 [µM]
Caco-2 [13]	1.3	–
Calu-3 [11]	0	–
Calu-3 [18]	–	> 10
HepG2 [12]	1.1	–
HepG2 [19]	–	> 10
U2OS [9]	0	–
U2OS [16]	–	> 10
Vero E6 [10]	0	–
Vero E6 [17]	–	> 10

O=C(Nc1ccc(-c2ccncc2)cc1)N[C@H](CO)c1ccccc1
Settings	SARS-CoV-2 infection rate, [6] [%]	cell count, [8] [%]	cell viability, Caco-2 [5] [%]	cell viability, HepG2 [4] [%]	cell viability, U2OS [1] [%]	cell viability, Vero E6 [2] [%]	morphology score, [15]
1 nM	–	–	99.4	96.7	98.6	97	–
10 nM	–	–	98.6	94.7	96.3	98.2	–
100 nM	–	–	96.1	105	99.2	98	–
0.1 µM	98	105	–	–	–	–	0.27
0.3 µM	101	112	–	–	–	–	0.23
1000 nM	–	–	95.3	102	97.5	94.2	–
1 µM	94	106	–	–	–	–	0.26
3 µM	110	91	–	–	–	–	-0.17
10000 nM	–	–	96.4	84.8	94.7	77	–

drug-induced phospholipidosis [%], A549-ACE2 [7]
Settings	0.3 µM	0.833333 µM	3.33333 µM	6.66667 µM	10 µM	30 µM
24 h	3.51	2.55	2.66	3.66	1.91	3.72
48 h	2.8	0.36	-0.35	3.11	1.09	6.28
72 h	2.59	-2.02	-0.767	-0.334	-0.186	6.14

Settings	drug sensitivity score	relative viability EC50 [µM]
Caco-2 [13]	0	–
Caco-2 [20]	–	> 10
HepG2 [12]	0.2	–
HepG2 [19]	–	> 10
U2OS [9]	0	–
U2OS [16]	–	> 10
Vero E6 [10]	1.6	–
Vero E6 [17]	–	> 10

COc1cccc(CCc2ccccc2OCC[C@@H]2C[C@@H](O)CN2C)c1
Settings	SARS-CoV-2 infection rate [%]	cell count [%]	cell viability [%]	morphology score	phospholipidosis EC50 [µM]
A549-ACE2 [14], 24 h	–	–	–	–	4.19
A549-ACE2 [14], 48 h	–	–	–	–	6.86
A549-ACE2 [14], 72 h	–	–	–	–	13.6
Caco-2 [5], 1 nM	–	–	96.1	–	–
Caco-2 [5], 10 nM	–	–	97.4	–	–
Caco-2 [5], 100 nM	–	–	104	–	–
Caco-2 [5], 1000 nM	–	–	85.9	–	–
Caco-2 [5], 10000 nM	–	–	90	–	–
Calu-3 [3], 1 nM	–	–	101	–	–
Calu-3 [3], 10 nM	–	–	92.9	–	–
Calu-3 [3], 100 nM	–	–	97.2	–	–
Calu-3 [3], 1000 nM	–	–	91.6	–	–
Calu-3 [3], 10000 nM	–	–	80.2	–	–
HepG2 [4], 1 nM	–	–	86.5	–	–
HepG2 [4], 10 nM	–	–	91.3	–	–
HepG2 [4], 100 nM	–	–	85.7	–	–
HepG2 [4], 1000 nM	–	–	96.8	–	–
HepG2 [4], 10000 nM	–	–	74.2	–	–
U2OS [1], 1 nM	–	–	101	–	–
U2OS [1], 10 nM	–	–	98.4	–	–
U2OS [1], 100 nM	–	–	100	–	–
U2OS [1], 1000 nM	–	–	98.3	–	–
U2OS [1], 10000 nM	–	–	92.9	–	–
Vero E6 [2], 1 nM	–	–	105	–	–
Vero E6 [2], 10 nM	–	–	102	–	–
Vero E6 [2], 100 nM	–	–	97.5	–	–
Vero E6 [2], 1000 nM	–	–	98.8	–	–
Vero E6 [2], 10000 nM	–	–	84.9	–	–
[6], 0.3 µM	105	–	–	–	–
[6], 3 µM	62	–	–	–	–
[6], 10 µM	22	–	–	–	–
[6], 30 µM	20	–	–	–	–
[8], 0.3 µM	–	97	–	–	–
[8], 3 µM	–	111	–	–	–
[8], 10 µM	–	119	–	–	–
[8], 30 µM	–	99	–	–	–
[15], 0.3 µM	–	–	–	-0.09	–
[15], 3 µM	–	–	–	0.68	–
[15], 10 µM	–	–	–	0.87	–
[15], 30 µM	–	–	–	0.46	–

drug-induced phospholipidosis [%], A549-ACE2 [7]
Settings	0.3 µM	0.833333 µM	3.33333 µM	6.66667 µM	10 µM	30 µM
24 h	0.95	6.59	62.7	89.3	95.1	128
48 h	5.49	6.45	45.9	81.8	98.6	139
72 h	4.74	4.21	42.1	79.5	98.4	166

Settings	drug sensitivity score	relative viability EC50 [µM]
Caco-2 [13]	1	–
Caco-2 [20]	–	> 10
Calu-3 [11]	0.9	–
Calu-3 [18]	–	> 10
HepG2 [12]	0	–
HepG2 [19]	–	> 10
U2OS [9]	0	–
U2OS [16]	–	> 10
Vero E6 [10]	0.3	–
Vero E6 [17]	–	> 10

CC[C@@H](C)CNCC(=O)N1CCc2sccc2[C@@H]1COc1cccc(C)c1 [RU-SKI-43]
Settings	SARS-CoV-2 infection rate [%]	cell count [%]	cell viability [%]	morphology score	phospholipidosis EC50 [µM]
A549-ACE2 [14], 24 h	–	–	–	–	3.7
A549-ACE2 [14], 48 h	–	–	–	–	4.58
A549-ACE2 [14], 72 h	–	–	–	–	6.66
Caco-2 [5], 1 nM	–	–	98.8	–	–
Caco-2 [5], 10 nM	–	–	103	–	–
Caco-2 [5], 100 nM	–	–	90.4	–	–
Caco-2 [5], 1000 nM	–	–	107	–	–
Caco-2 [5], 10000 nM	–	–	83.2	–	–
Calu-3 [3], 1 nM	–	–	94.9	–	–
Calu-3 [3], 10 nM	–	–	103	–	–
Calu-3 [3], 100 nM	–	–	102	–	–
Calu-3 [3], 1000 nM	–	–	109	–	–
Calu-3 [3], 10000 nM	–	–	80.8	–	–
HepG2 [4], 1 nM	–	–	104	–	–
HepG2 [4], 10 nM	–	–	94.5	–	–
HepG2 [4], 100 nM	–	–	99.6	–	–
HepG2 [4], 1000 nM	–	–	108	–	–
HepG2 [4], 10000 nM	–	–	86.8	–	–
U2OS [1], 1 nM	–	–	95.5	–	–
U2OS [1], 10 nM	–	–	98.1	–	–
U2OS [1], 100 nM	–	–	94.4	–	–
U2OS [1], 1000 nM	–	–	99.5	–	–
U2OS [1], 10000 nM	–	–	93	–	–
Vero E6 [2], 1 nM	–	–	93.7	–	–
Vero E6 [2], 10 nM	–	–	92.9	–	–
Vero E6 [2], 100 nM	–	–	90.4	–	–
Vero E6 [2], 1000 nM	–	–	98.3	–	–
Vero E6 [2], 10000 nM	–	–	92.8	–	–
[6], 0.3 µM	102	–	–	–	–
[6], 3 µM	60	–	–	–	–
[6], 10 µM	24	–	–	–	–
[6], 30 µM	24	–	–	–	–
[8], 0.3 µM	–	98	–	–	–
[8], 3 µM	–	116	–	–	–
[8], 10 µM	–	119	–	–	–
[8], 30 µM	–	100	–	–	–
[15], 0.3 µM	–	–	–	-0.05	–
[15], 3 µM	–	–	–	0.65	–
[15], 10 µM	–	–	–	0.83	–
[15], 30 µM	–	–	–	0.3	–

drug-induced phospholipidosis [%], A549-ACE2 [7]
Settings	0.3 µM	0.833333 µM	3.33333 µM	6.66667 µM	10 µM	30 µM
24 h	2.31	9.84	41	92	102	95.8
48 h	1.76	10.7	27.3	78.5	100	95
72 h	3.03	9.34	27.4	73.8	102	–

Settings	drug sensitivity score	relative viability EC50 [µM]
Caco-2 [13]	0.2	–
Caco-2 [20]	–	> 10
Calu-3 [11]	0.3	–
Calu-3 [18]	–	> 10
HepG2 [12]	0	–
HepG2 [19]	–	> 10
U2OS [9]	0	–
U2OS [16]	–	> 10
Vero E6 [10]	0	–
Vero E6 [17]	–	> 10
